Consider 4 compounds from patent publication US11285172B2, “Method for treating inflammatory diseases” (MacKay Memorial Hospital, priority 2019, dated 2022).

Each structure is given as a SMILES string. Structures can show the parent of a compound that is named as a salt.

In the assay the test system is FANCs internalization in HAECs. As to the kind of experiment: Endocytic pathway inhibition: FANC internalization in HAECs after endocytosis inhibitor pre-treatment (flow cytometry, confocal). The class given is cell-based, human. The settings on record: for effect on FANCs internalization: complete medium, inhibitor pre-treatment 45 min (filipin 30 min); for effect on FANCs internalization / decrement of FANCs internalization compared to FANCs control: then FANCs 80 min; for decrement of FANCs internalization compared to FANCs control: 45 min inhibitor pre-treatment. Here is the method: In certain experiments, HAECs were treated by endocytosis inhibitors to inhibit endocytic pathways. Endocytosis inhibitors are chlorpromazine hydrochloride (10 μg/ml, C8138), filipin (10 μg/ml, F9765), amiloride (10 μmol/L A7410), and genistein (50 μmol/L G6649; all obtained from Sigma-Aldrich).
Cells were seeded onto 2% gelatin-coated glass coverslips and incubated for 24 hours and applied to FANCs treatments. Cells were fixed with 1% paraformaldehyde, washed with PBS, then blocked with 5% bovine serum albumin (BSA) for 30 minutes. Then the cell culture was incubated with primary antibodies against VE-cadherin at 37° C. for 2 hours, followed by application of FITC-conjugated secondary antibody (Chemicon, Temecula, Calif., USA) for 50 minutes under room temperature. After one hour for the pre-treatment by above-mentioned endocytosis inhibitor, HAECs were incubated with FANCs for 80 minutes followed by washed with PBS and fixed with 1% paraformaldehyde. Afterwards, cells were stained with bisbenzamide (18.7 μmol/L) for 15 minutes and then washed with PBS buffer. Then, the cells were mounted by using 60% glycerol (v/v) and examined by using a confocal microscope (Leica TCS SP5, Leica, Germany) with a 40× oil objective/1.25 aperture. The images were captured under room temperature.
After 45 minutes of inhibitors pre-treatment (except 30 minutes of filipin treatment), FANCs were added and the incubation continued for additional 80 minutes. Thereafter, cells were subject to flow cytometry (FIGS. 1A-1D). […] However, in low serum or no serum medium, internalization of FANCs was blocked by chlorpromazine hydrochloride (compared to FANCs control, 60% of decrement at 1% FBS medium and 51% of decrement at no serum medium; FIGS. 1B and 1C).
On the technique in general: A flow cytometer gives signals particle by particle.

In the case of `CCCCC[C@@H](O)[C@H]1C(=O)O[C@H](C)[C@@H](O)/C=C/C=C/C=C/C=C/C=C(\C)[C@@H](O)C[C@H](O)C[C@H](O)C[C@H](O)C[C@H](O)C[C@H](O)C[C@@H]1O` [filipin], the “effect on FANCs internalization” value (flow cytometry) was “slighter effects”.

Regarding `O=c1c(-c2ccc(O)cc2)coc2cc(O)cc(O)c12` [genistein], the “effect on FANCs internalization” value (flow cytometry) is “slighter effects”.

On to `N=C(N)NC(=O)c1nc(Cl)c(N)nc1N` [amiloride], for which, for the setting “flow cytometry”, the “effect on FANCs internalization” value is given as “slighter effects”.

Turning to `CN(C)CCCN1c2ccccc2Sc2ccc(Cl)cc21` [chlorpromazine hydrochloride], the “decrement of FANCs internalization compared to FANCs control” value is given as 60% (1% FBS medium, flow cytometry, HAECs) and 51% (no serum medium, flow cytometry, HAECs). For the same compound, the “effect on FANCs internalization” value (flow cytometry) is recorded as “slighter effects”. In addition, under “confocal microscopy, HAECs, FANCs 80 min after inhibitor pre-treatment”, the “punctate fluorescence signals of FANCs (confocal microscopy)” value is on record as “down-regulated”. Further, the “FANC internalization, dose dependence” value (only in low serum and no serum supplement culture environments, flow cytometry) is “attenuated FANC internalization in a dose-dependent manner”.
